Measured values as given in ChEMBL document CHEMBL1201862, “PubChem BioAssay data set” (2004).
The source made the active and inactive calls.

Legend:
Cytochrome P450 2C19 = Cytochrome P450 2C19 (Homo sapiens, UniProt P33261); test: Cytochrome panel assay with activity outcomes. Panel member name: p450-cyp2c19 Compounds with AC50 equal or less than 10 uM are considered active; type: functional
Cytochrome P450 2C9 = Cytochrome P450 2C9 (Homo sapiens, UniProt P11712)
[1] = Trypanosoma cruzi growth suppression in host cells – NIH3T3 host cells, beta-gal luminescence, confirmation (AID 2044); type: functional, cell-based;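 also: intracellular parasites grown in NIH/3T3 mouse fibroblasts as host cells; luminescent beta-galactosidase reporter signal from transgenic T. cruzi replicating inside host cells; inhibitors lower the luminescence signal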
[2] = NIH3T3 cell viability loss – ATP luminescence, mouse fibroblasts, counter-screen, dose response (AID 2010); type: functional, cell-based;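 also: cells exposed to compound for about 90 hours before reading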
[3] = system: Streptococcus sp. 'group A'; test: Streptococcus pyogenes SK(-)GAS viability under kanamycin – luminescence, BacTiterGlo, confirmation, counter-screen for streptokinase expression inhibitor project, dose response (AID 1900); type: functional, organism-based
Streptokinase A = target: T1, Streptokinase A (Streptococcus pyogenes serotype M1, UniProt P10520); test: viability-normalized secreted streptokinase activity reduction – plasminogen activation absorbance, OD405, dose response (AID 1914); type: functional, Streptococcus pyogenes M1 GAS;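 also: secreted streptokinase activity via plasminogen activation per viability signal from cell pellet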
T1 sequence (P10520 whole entry): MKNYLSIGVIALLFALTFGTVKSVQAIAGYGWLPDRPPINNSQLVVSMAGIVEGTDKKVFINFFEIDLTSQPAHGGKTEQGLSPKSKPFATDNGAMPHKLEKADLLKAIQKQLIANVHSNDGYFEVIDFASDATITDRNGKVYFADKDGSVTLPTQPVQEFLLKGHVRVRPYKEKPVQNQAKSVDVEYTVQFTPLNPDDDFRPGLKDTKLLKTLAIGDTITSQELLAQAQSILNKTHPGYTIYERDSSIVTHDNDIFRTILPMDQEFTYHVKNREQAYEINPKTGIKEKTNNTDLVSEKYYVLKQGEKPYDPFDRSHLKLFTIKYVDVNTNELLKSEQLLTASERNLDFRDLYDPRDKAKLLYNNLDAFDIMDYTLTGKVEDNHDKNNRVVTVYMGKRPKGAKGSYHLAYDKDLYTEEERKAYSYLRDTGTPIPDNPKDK

Streptococcus = test: GAS UMAA2166 growth inhibition – luminescence, BacTiterGlo, counter-screen for streptokinase expression inhibitor project, dose response (AID 1915); type: functional, organism-based;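 also: potency for reduction of bacterial viability or growth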
[4] = target: T2, Heat shock factor protein 1 (Mus musculus, UniProt P38532); test: decrease of HSF1-responsive luciferase luminescence – cell-based, NIH3T3, dose retest, confirmation (AID 2382); type: functional;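 also: NIH3T3 fibroblasts with HSF1-driven luciferase reporter stressed by proteasome inhibitor MG132; luminescence from HSF1-driven luciferase expression after 8 hours of MG132 stress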
T2 sequence (P38532 whole entry): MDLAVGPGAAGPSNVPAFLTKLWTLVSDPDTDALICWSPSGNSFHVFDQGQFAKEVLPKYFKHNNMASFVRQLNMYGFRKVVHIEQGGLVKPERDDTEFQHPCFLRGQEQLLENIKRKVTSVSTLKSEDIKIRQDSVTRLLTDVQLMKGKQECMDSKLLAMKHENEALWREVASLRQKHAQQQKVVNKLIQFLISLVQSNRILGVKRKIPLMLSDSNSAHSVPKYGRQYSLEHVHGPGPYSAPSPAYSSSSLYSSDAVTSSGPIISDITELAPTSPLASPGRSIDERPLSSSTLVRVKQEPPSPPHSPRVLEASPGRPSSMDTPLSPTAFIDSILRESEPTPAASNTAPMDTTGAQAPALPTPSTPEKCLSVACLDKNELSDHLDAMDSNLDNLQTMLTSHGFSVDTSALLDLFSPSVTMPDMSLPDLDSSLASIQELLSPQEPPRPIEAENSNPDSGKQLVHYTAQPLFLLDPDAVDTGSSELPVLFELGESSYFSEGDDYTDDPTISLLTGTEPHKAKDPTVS

Cytochrome P450 3A4 = Cytochrome P450 3A4 (Homo sapiens, UniProt P08684);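 also: CYP3A4 tested as one member of a cytochrome P450 panel screen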
Sequence of Cytochrome P450 3A4 (P08684 whole entry): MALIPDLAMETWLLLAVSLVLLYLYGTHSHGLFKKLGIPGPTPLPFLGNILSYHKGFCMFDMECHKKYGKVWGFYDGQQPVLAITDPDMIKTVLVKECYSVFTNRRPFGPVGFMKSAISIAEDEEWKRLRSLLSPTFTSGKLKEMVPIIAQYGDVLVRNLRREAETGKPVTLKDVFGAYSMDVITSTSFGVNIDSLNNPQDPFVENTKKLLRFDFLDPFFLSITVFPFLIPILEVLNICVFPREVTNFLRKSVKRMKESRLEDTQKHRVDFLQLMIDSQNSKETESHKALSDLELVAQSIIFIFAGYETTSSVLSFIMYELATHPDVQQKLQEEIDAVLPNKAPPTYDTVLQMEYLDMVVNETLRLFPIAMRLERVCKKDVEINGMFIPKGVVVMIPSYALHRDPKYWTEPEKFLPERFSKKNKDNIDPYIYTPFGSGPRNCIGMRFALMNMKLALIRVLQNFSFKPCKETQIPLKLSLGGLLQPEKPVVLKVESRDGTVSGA

Sequence of Cytochrome P450 2C19 (P33261 whole entry): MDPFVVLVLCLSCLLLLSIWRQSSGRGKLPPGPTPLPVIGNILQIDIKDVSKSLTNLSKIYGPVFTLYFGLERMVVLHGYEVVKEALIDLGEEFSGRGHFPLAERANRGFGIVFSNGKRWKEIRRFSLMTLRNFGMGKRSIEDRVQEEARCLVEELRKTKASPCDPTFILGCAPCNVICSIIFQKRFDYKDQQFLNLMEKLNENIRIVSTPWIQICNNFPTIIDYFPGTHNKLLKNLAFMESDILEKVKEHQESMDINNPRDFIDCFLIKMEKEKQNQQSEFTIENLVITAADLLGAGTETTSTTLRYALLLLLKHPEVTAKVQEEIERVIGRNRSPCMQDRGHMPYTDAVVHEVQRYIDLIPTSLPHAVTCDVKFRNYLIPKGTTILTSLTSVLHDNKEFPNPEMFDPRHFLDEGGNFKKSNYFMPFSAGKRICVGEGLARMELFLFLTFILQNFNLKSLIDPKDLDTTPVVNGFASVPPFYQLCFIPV
Sequence of Cytochrome P450 2C9 (P11712 whole entry): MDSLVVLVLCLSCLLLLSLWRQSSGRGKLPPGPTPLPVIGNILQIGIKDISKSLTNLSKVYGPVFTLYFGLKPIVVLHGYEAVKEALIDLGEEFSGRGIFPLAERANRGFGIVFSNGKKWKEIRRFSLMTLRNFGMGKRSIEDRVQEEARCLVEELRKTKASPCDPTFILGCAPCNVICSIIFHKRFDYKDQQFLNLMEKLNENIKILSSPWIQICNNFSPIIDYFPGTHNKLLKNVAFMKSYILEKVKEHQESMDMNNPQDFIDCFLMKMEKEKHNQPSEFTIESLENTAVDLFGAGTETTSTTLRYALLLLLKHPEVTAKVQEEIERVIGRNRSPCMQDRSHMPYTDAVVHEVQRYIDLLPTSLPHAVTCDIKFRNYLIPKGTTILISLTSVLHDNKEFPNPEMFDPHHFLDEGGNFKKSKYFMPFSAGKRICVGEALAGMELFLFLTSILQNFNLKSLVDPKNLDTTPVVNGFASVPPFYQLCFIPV

CN1CCN(C(=O)c2ccc3c(=O)n4c(nc3c2)CCCCC4)CC1
AC50 (Cytochrome P450 2C19; read-out: AC50): 10 µM (inconclusive)

O=C(c1cnccn1)N1CCC2(CC1)CN(Cc1ccncc1)C2
AC50 (Cytochrome P450 2C9): 31.6 µM (inconclusive)

COC(=O)c1cc(C(=O)Nc2ccc(S(=O)(=O)NC(C)(C)C)cc2)cc([N+](=O)[O-])c1
EC50 [1]: 0.797 µM (active) | EC50 [2]: > 60 µM (inconclusive)

CCOc1nn(-c2ccc(Cl)cc2)c(O)c1/C=N/c1ccc(Cl)cc1
AC50 (Cytochrome P450 2C9): 12.6 µM (inconclusive)

CCOc1cccc(N(C(=O)c2ccco2)C(C(=O)NC2CCCC2)c2cccnc2)c1 (stereo unspecified)
EC50 [3]: > 150 µM (not active) | EC50 (Streptokinase A): > 150 µM (not active) | EC50 (Streptococcus): > 150 µM (not active)

Cc1[nH]c2ccccc2c1/C=C/c1nc2ccccc2c(=O)n1-c1cccc([N+](=O)[O-])c1
EC50 [4]: > 195 µM (not active)

O=C(CCc1nc(-c2cccs2)no1)NCc1ccc(F)cc1Cl
EC50 [4]: > 195 µM (not active)

CCS(=O)(=O)c1nc(S(=O)(=O)c2ccc(C)cc2)c(NCCN2CCOCC2)s1
EC50 [3]: > 150 µM (not active) | EC50 (Streptokinase A): > 150 µM (not active) | EC50 (Streptococcus): > 150 µM (not active)

NS(=O)(=O)c1ccc(/N=N\c2ccc(O)c(C(=O)O)c2)cc1
AC50 (Cytochrome P450 2C9): 1 µM (inconclusive)

CCCCN(C)CC(O)Cn1cc(/C=C/C(=O)c2ccc(OCC)cc2)c2ccccc21 (stereo unspecified)
EC50 [1]: 0.154 µM (active) | EC50 [2]: 6.17 µM (active)

COc1ccc(OC)c(NC(=O)NCc2cccnc2)c1
EC50 [3]: > 150 µM (not active) | EC50 (Streptokinase A): > 150 µM (not active) | EC50 (Streptococcus): > 150 µM (not active)

CCOc1ccc(-n2c(SCc3nc(-c4cccs4)no3)nnc2-c2ccncc2)cc1
EC50 [1]: 1.25 µM (active) | EC50 [2]: > 60 µM (not active)

CN1C(C(=O)Nc2ccc(OC(F)(F)F)cc2)=CC(c2cccs2)=NS1(=O)=O
EC50 [4]: 62.2 µM (active)

COc1ccc(C(=O)N2CCC3(CCN(Cc4ccncc4)CC3)CC2)cc1
AC50 (Cytochrome P450 2C9): 7.94 µM (inconclusive)

CNC(=O)C(=O)NCC1OCCN1S(=O)(=O)c1ccc(OC)c(OC)c1 (stereo unspecified)
EC50 [3]: > 150 µM (not active) | EC50 (Streptokinase A): > 150 µM (not active) | EC50 (Streptococcus): > 150 µM (not active)

CCN(CC)CCCSc1nc2ccccc2s1
EC50 [1]: 0.445 µM (active) | EC50 [2]: > 30 µM (not active)

O=C(O)CSc1ccn(Cc2ccccc2)c1
AC50 (Cytochrome P450 2C19): inconclusive

COc1ccc(NC(=O)CN(C)S(=O)(=O)c2ccc(Cl)cc2)c([N+](=O)[O-])c1
AC50 (Cytochrome P450 3A4): 1.78 µM (inconclusive)

COCCOC(=O)C1=C(C)N=C(C)/C(=C(/O)OC(C)C)C1c1cccc([N+](=O)[O-])c1 (stereo unspecified)
EC50 [1]: 1.31 µM (active) | EC50 [2]: > 60 µM (not active)

CC(=O)OCC1=C(C(=O)O)N2C(=O)C(NC(=O)Cn3nc(C(F)F)c(Cl)c3C)C2SC1 (stereo unspecified)
EC50 [3]: < 0.06 µM (active) | EC50 (Streptococcus): 0.111 µM (active)

O=S(=O)(CCc1nc2ccccc2[nH]1)c1ccc(Cl)cc1
EC50 [4]: > 195 µM (not active)

COc1ccc(O[C@H]2C=C[C@@H](c3ccccc3)O[C@H]2COC(=O)CC/C(C)=N\O[C@@H](C)c2cc(-c3c(C)cc(C)cc3C)no2)cc1
AC50 (Cytochrome P450 2C9): 1.58 µM (inconclusive)

CN(C)C(=O)CSc1nnc(O)nc1O
EC50 [4]: > 195 µM (not active)

O=C(Oc1ccccc1)N1CCC[C@@]2(CCN(c3ncccn3)C2)C1
AC50 (Cytochrome P450 3A4): 15.8 µM (inconclusive)

COc1ccc(-c2cc3nc(C)c(CCC(=O)NCc4ccc(F)cc4)c(C)n3n2)c(OC)c1
EC50 [1]: 1.33 µM (active) | EC50 [2]: > 60 µM (inconclusive)

CC(Sc1nnc(Cc2cccs2)n1C1CCCCC1)C(N)=O (stereo unspecified)
AC50 (Cytochrome P450 3A4): 3.98 µM (inconclusive)

COc1ccc(NC(=O)C23CC4CC(C2)CC(n2cnc(Br)n2)(C4)C3)c(C)c1
AC50 (Cytochrome P450 3A4): 14.1 µM (inconclusive)

CCOc1ccc(-n2c(C)cc(/C=C3/C(=N)N4C(=NC3=O)SN=C4S(C)(=O)=O)c2C)cc1
EC50 [3]: 0.599 µM (active) | EC50 (Streptokinase A): > 150 µM (not active) | EC50 (Streptococcus): 17.5 µM (active)

c1ccc(C(NCCNC(c2ccccc2)c2ccccc2)c2ccccc2)cc1
EC50 [3]: 1.51 µM (active) | EC50 (Streptokinase A): 12 µM (active) | EC50 (Streptococcus): 20.8 µM (active)

COC(=O)[C@H](Cc1ccccc1)NC(=O)[C@@H](C)CO
AC50 (Cytochrome P450 2C9): 3.98 µM (inconclusive)

CCOC(=O)n1c(SCC(N)=O)nc2ccccc21
EC50 [4]: > 195 µM (not active)

C[C@]12CC[C@@H]3C(=CCc4cc(O)ccc43)[C@@H]1CCC2=O
AC50 (Cytochrome P450 2C19; read-out: AC50): 7.94 µM (inconclusive)

O=C(C1CCC(CNS(=O)(=O)c2cccc3cccnc23)CC1)N1CCCC1 (stereo unspecified)
EC50 [4]: > 195 µM (not active)

CC1(C)OC(=O)C(/C=N/c2cccc(O)c2)=C(O)O1
AC50 (Cytochrome P450 3A4): 31.6 µM (inconclusive)

CCCCCC(=O)NNC(=O)c1c(O)c2ccccc2n(CC)c1=O
EC50 [3]: 7.72 µM (active) | EC50 (Streptokinase A): > 50 µM (not active) | EC50 (Streptococcus): 19.1 µM (active)

COc1ccc(C(=O)C2CCCN(Cc3cnc(N4CCOCC4)s3)C2)c(OC)c1 (stereo unspecified)
EC50 [1]: 0.991 µM (active) | EC50 [2]: > 60 µM (not active)

Clc1ccc(COn2c(-c3ccc(Cl)cc3)nc3ccccc32)cc1
EC50 [3]: 8.35 µM (active) | EC50 (Streptokinase A): > 50 µM (not active) | EC50 (Streptococcus): 10.8 µM (active)

CC1=NN(C(N)=S)C(=O)C1N=Nc1c(C)cc(C)cc1C (stereo unspecified)
EC50 [3]: 5.14 µM (active) | EC50 (Streptokinase A): > 150 µM (not active) | EC50 (Streptococcus): > 150 µM (not active)

N#Cc1cccc(-c2cc(NCc3cccnc3)ncn2)c1
AC50 (Cytochrome P450 2C19; read-out: AC50): 15.8 µM (inconclusive)

COc1ccc2nc(/N=C\N(C)C)sc2c1
AC50 (Cytochrome P450 2C19; read-out: AC50): 22.4 µM (inconclusive) | AC50 (Cytochrome P450 2C9): 0.00562 µM (inconclusive)

Oc1cc(CN2COc3ccccc32)c(O)cc1CNC1CCCCC1
AC50 (Cytochrome P450 2C19; read-out: AC50): 1.26 µM (inconclusive) | AC50 (Cytochrome P450 2C9): 6.31 µM (inconclusive)

CCC(=O)n1nc(-c2cccnc2)nc1NCc1cccs1
EC50 [4]: > 195 µM (not active)

Cn1ncc(Cl)c1C(=O)N1CCC2(CC1)OCCO2
EC50 [3]: > 150 µM (not active) | EC50 (Streptokinase A): > 150 µM (not active) | EC50 (Streptococcus): > 150 µM (not active)

O=C(Nc1cc(Sc2ccccn2)cc([N+](=O)[O-])c1)c1cccc(Cl)c1
EC50 [1]: 0.625 µM (active) | EC50 [2]: > 60 µM (not active)

CCOC(=O)c1cccc(NC(=O)C2CCN(c3ncnc4c3nc3n4CCCCC3)CC2)c1
EC50 [4]: > 195 µM (not active)

CCn1cnc2c1c(=O)n(CC(=O)Nc1cc(C)on1)c(=O)n2Cc1ccccc1
EC50 [3]: > 150 µM (not active) | EC50 (Streptokinase A): > 150 µM (not active) | EC50 (Streptococcus): > 150 µM (not active)

Cc1cccc(C(=O)NC2CCN(C(=O)N3CCOCC3)CC2)c1
AC50 (Cytochrome P450 2C19; read-out: AC50): 31.6 µM (inconclusive)

CCN(CC)c1ccc(CNc2nc3ccccc3n2CCN2CCOCC2)cc1
EC50 [4]: > 195 µM (not active)

Cc1ccc(NC(=O)C2CCN(S(C)(=O)=O)CC2)cc1
AC50 (Cytochrome P450 2C19; read-out: AC50): 20 µM (inconclusive)

CCOc1ccc(CCNC(=O)c2cc(-c3ccccc3)c(N3CCOCC3)s2)cc1
EC50 [1]: 1.45 µM (active) | EC50 [2]: > 60 µM (not active)

C[C@@H](CCCCC(=O)Nc1ccc(C(F)(F)F)cc1)NCCc1c[nH]cn1
AC50 (Cytochrome P450 2C19; read-out: AC50): 15.8 µM (inconclusive)

Clc1ccc(/C=N/N=C(/Nc2ccccc2)c2ccccn2)c(Cl)c1
EC50 [3]: 10.9 µM (active) | EC50 (Streptokinase A): > 150 µM (not active) | EC50 (Streptococcus): 30.2 µM (active)

C=CCO/C(O)=C1\C(C)=NC(SCC)=C(C#N)C1c1ccc(Cl)cc1 (stereo unspecified)
EC50 [3]: 4.9 µM (active) | EC50 (Streptokinase A): 8.34 µM (active) | EC50 (Streptococcus): 17.6 µM (active)

Cc1cc(C)n(-c2cc(N3CCN(S(=O)(=O)c4ccc(C)c(C)c4)CC3)ccc2[N+](=O)[O-])n1
AC50 (Cytochrome P450 2C9): 2.24 µM (inconclusive)

Cc1ccc(CN2C(=O)CCC2C(=O)NCc2cccnc2)cc1 (stereo unspecified)
AC50 (Cytochrome P450 2C9): 28.2 µM (inconclusive)

CC(=O)Oc1ccc2c(c1)CC[C@@H]1[C@@H]2CC[C@]2(C)[C@@H](O)CC[C@@H]12 [ESTRADIOL ACETATE]
EC50 [4]: > 195 µM (not active)

O=C(O)CCC(=O)N1CCc2cc(S(=O)(=O)NCc3cccs3)ccc21
AC50 (Cytochrome P450 2C19; read-out: AC50): 25.1 µM (inconclusive) | AC50 (Cytochrome P450 2C9): 31.6 µM (inconclusive)
